ChEMBL document CHEMBL4196074, “Metallomics for Alzheimer's disease treatment: Use of new generation of chelators combining metal-cation binding and transport properties” (Eur J Med Chem, 2018)
The source made the active and inactive calls. Unless noted, the rule behind the calls is not given here.

Key:
[1] = Metal chelating activity assessed as compound-Zn2+ complex formation by UV-vis spectrophotometric analysis
SH-SY5Y [2] = assay: Inhibition of Fe3+-mediated amyloid beta (1 to 42 residues) production in human SH-SY5Y cells expressing APPswe mutant at 1 uM after 72 hrs by ELISA based spectrophotometric analysis; type: cell-based
SH-SY5Y [3] = assay: Inhibition of Cu2+-mediated ROS generation in human SH-SY5Y cells expressing APPswe mutant at 1 uM after 72 hrs by DCF-DA dye-based fluorescence spectroscopic analysis; type: cell-based
[4] = Metal chelating activity assessed as compound-Fe3+ complex formation by UV-vis spectrophotometric analysis
[5] = Metal chelating activity assessed as compound-Cu2+ complex formation by UV-vis spectrophotometric analysis
SH-SY5Y [6] = assay: Neuroprotective activity against amyloid beta (1 to 42 residues) induced cell death in human SH-SY5Y cells expressing APPswe mutant at 1 uM after 48 hrs by WST1 assay; type: functional, cell-based
SH-SY5Y [7] = assay: Inhibition of Cu2+-mediated amyloid beta (1 to 42 residues) production in human SH-SY5Y cells expressing APPswe mutant at 1 uM after 72 hrs by ELISA based spectrophotometric analysis; type: cell-based
SH-SY5Y [8] = assay: Antiproliferative activity against human SH-SY5Y cells at 1 uM after 24 to 72 hrs by WST1 assay; type: cell-based
[9] = target: Acetylcholinesterase (Homo sapiens) (UniProt P22303); assay: Inhibition of acetylcholinesterase (unknown origin) at 1 uM using acetylthiocholine chloride as substrate measured for 5 to 40 mins
Chain of Acetylcholinesterase (Homo sapiens) (P22303 whole entry): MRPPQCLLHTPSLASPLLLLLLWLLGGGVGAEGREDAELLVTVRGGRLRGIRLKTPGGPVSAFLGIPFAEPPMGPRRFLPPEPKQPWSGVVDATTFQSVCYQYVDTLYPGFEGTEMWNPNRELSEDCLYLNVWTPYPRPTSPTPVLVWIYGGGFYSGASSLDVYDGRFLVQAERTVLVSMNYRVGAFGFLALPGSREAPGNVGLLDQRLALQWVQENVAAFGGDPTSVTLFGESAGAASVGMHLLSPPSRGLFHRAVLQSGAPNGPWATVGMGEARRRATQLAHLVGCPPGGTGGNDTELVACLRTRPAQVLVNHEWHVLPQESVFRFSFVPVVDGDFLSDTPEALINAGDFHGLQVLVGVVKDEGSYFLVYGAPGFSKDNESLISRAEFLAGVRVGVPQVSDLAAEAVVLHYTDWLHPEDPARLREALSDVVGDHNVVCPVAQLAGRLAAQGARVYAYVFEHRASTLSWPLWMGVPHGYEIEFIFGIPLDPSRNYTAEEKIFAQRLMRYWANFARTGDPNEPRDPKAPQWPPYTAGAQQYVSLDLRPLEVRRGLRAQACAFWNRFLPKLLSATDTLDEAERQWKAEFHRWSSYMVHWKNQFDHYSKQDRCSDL

SH-SY5Y [10] = assay: Inhibition of Fe3+-mediated ROS generation in human SH-SY5Y cells expressing APPswe mutant at 1 uM after 72 hrs by DCF-DA dye-based fluorescence spectroscopic analysis; type: cell-based
SH-SY5Y [11] = assay: Inhibition of Cu2+-induced toxicity in human SH-SY5Y cells expressing APPswe mutant assessed as increase in cell viability at 1 uM after 72 hrs by WST1 assay; type: cell-based
SH-SY5Y [12] = assay: Inhibition of Cu2+-induced caspase-3 activity in human SH-SY5Y cells expressing APPswe mutant at 1 uM after 72 hrs by AcDEVD substrate-based spectrophotometric analysis; type: cell-based
SH-SY5Y [13] = assay: Inhibition of Zn2+-mediated ROS generation in human SH-SY5Y cells expressing APPswe mutant at 1 uM after 72 hrs by DCF-DA dye-based fluorescence spectroscopic analysis; type: cell-based
SH-SY5Y [14] = assay: Inhibition of Zn2+-mediated amyloid beta (1 to 42 residues) production in human SH-SY5Y cells expressing APPswe mutant at 1 uM after 72 hrs by ELISA based spectrophotometric analysis; type: cell-based
SH-SY5Y [15] = assay: Antiproliferative activity against human SH-SY5Y cells at 1 uM after 48 hrs by WST1 assay; type: cell-based
[16] = Effective permeability of the compound at 10^-5 mol/L after 5 hrs by UV-based PAMPA; type: ADME; conditions: read-out: Peff

Structure (SMILES) | Activity [1] | inhibition (SH-SY5Y [2]) | inhibition (SH-SY5Y [3]) | Activity [4] | Activity [5] | Activity (SH-SY5Y [6]) | inhibition (SH-SY5Y [7]) | Activity (SH-SY5Y [8]) | inhibition [9] | inhibition (SH-SY5Y [10]) | inhibition (SH-SY5Y [11]) | inhibition (SH-SY5Y [12]) | inhibition (SH-SY5Y [13]) | inhibition (SH-SY5Y [14]) | Activity (SH-SY5Y [15]) | Papp at 5 h, 10 µM [16] [×10⁻⁶ cm/s]
CCN1/C(=C/c2c(N/N=C/c3cc(C(C)(C)C)ccc3O)c(=O)c2=O)Sc2ccccc21 | inactive | inactive | inactive | Active | Active | inactive | inactive | Non-Toxic | inactive | inactive |  |  |  |  |  | 
COc1cccc(/C=N/NC(=O)CC[C@@H](C)[C@H]2CC[C@H]3[C@@H]4[C@H](O)C[C@@H]5C[C@H](O)CC[C@]5(C)[C@H]4C[C@H](O)[C@]23C)c1O | inactive |  |  | inactive | Active | Active | inactive | Non-Toxic | inactive |  | Active | Active |  |  |  | 
COc1cccc(/C=N/NC(=O)c2ccc(NC(=O)CC[C@@H](C)[C@H]3CC[C@H]4[C@@H]5[C@H](O)C[C@@H]6C[C@H](O)CC[C@]6(C)[C@H]5C[C@H](O)[C@]34C)cc2)c1O (stereo in doubt) | Active | inactive | inactive | Active | Active | inactive | inactive | Non-Toxic | inactive | inactive |  |  | inactive | inactive |  | 
c1ccc(C(=NNc2nncc3ccccc23)c2ccccn2)nc1 | Active | inactive |  | Active | Active | inactive | inactive |  |  |  |  |  |  | inactive | Toxic | 
COc1ccc(Nc2c(N/N=C/c3c(CO)cnc(C)c3O)c(=O)c2=O)cc1 | inactive | inactive | inactive | Active | Active | inactive | inactive | Non-Toxic | inactive | inactive |  |  |  |  |  | 1.6
Cc1ncc(CO)c(/C=N/Nc2nncc3ccccc23)c1O | inactive | inactive |  | Active | Active | inactive | inactive |  |  |  |  |  |  |  | Toxic | 7.8
COc1cccc(/C=N/Nc2nncc3ccccc23)c1O | Active | inactive |  | Active | Active | inactive | inactive |  |  |  |  |  |  | inactive | Toxic | 
COc1ccc(Nc2c(N/N=C/c3cccc(OC)c3O)c(=O)c2=O)cc1 | inactive | inactive | inactive | Active | Active | inactive | inactive | Non-Toxic | inactive | inactive |  |  |  |  |  | 
Oc1c(I)cc(Cl)c2cccnc12 |  | Active |  |  |  |  | Active |  |  |  |  |  |  | Active |  | 
CCN1/C(=C/c2c(N/N=C/c3ccc4ccccc4n3)c(=O)c2=O)Sc2ccccc21 | Active | inactive | inactive | Active | Active | inactive | inactive | Non-Toxic | inactive | inactive |  |  | inactive | inactive |  | 
CCN1/C(=C/c2c(N/N=C/c3c(CO)cnc(C)c3O)c(=O)c2=O)Sc2ccccc21 | inactive | inactive | inactive | Active | Active | inactive | inactive | Non-Toxic | inactive | inactive |  |  |  |  |  | 2.8
COc1ccc(Nc2c(N/N=C/c3ccc(C(C)(C)C)cc3O)c(=O)c2=O)cc1 | inactive | inactive | inactive | Active | Active | inactive | inactive | Non-Toxic | inactive | inactive |  |  |  |  |  | 
CCN1/C(=C/c2c(N/N=C/c3cccc(OC)c3O)c(=O)c2=O)Sc2ccccc21 | inactive | inactive | inactive | Active | Active | inactive | inactive | Non-Toxic | inactive | inactive |  |  |  |  |  | 
Cc1ncc(CO)c(/C=N/NC(=O)c2ccc(NC(=O)CC[C@@H](C)[C@H]3CC[C@H]4[C@@H]5[C@H](O)C[C@@H]6C[C@H](O)CC[C@]6(C)[C@H]5C[C@H](O)[C@]34C)cc2)c1O (stereo in doubt) | Active | inactive | inactive | Active | Active | inactive | inactive | Non-Toxic | inactive | inactive |  |  | inactive | inactive |  | 2.2
C(=N\Nc1nncc2ccccc12)/c1ccc2ccccc2n1 | inactive |  |  | inactive | Active | inactive | inactive |  |  |  |  |  |  |  | Toxic | 
CC(C)(C)c1ccc(O)c(/C=N/Nc2nncc3ccccc23)c1 | Active | inactive |  | Active | Active | inactive | inactive |  |  |  |  |  |  | inactive | Toxic | 
C[C@H](CCC(=O)Nc1ccc(C(=O)N/N=C/c2ccc3ccccc3n2)cc1)[C@H]1CC[C@H]2[C@@H]3[C@H](O)C[C@@H]4C[C@H](O)CC[C@]4(C)[C@H]3C[C@H](O)[C@]12C (stereo in doubt) | Active | inactive | inactive | Active | Active | inactive | inactive | Non-Toxic | inactive | inactive |  |  | inactive | inactive |  | 
COc1ccc(Nc2c(N/N=C/c3ccc4ccccc4n3)c(=O)c2=O)cc1 | inactive | inactive | inactive | Active | Active | inactive | inactive | Non-Toxic | inactive | inactive |  |  |  |  |  | 
C[C@H](CCC(=O)Nc1ccc(C(=O)N/N=C/c2ccc(C(C)(C)C)cc2O)cc1)[C@H]1CC[C@H]2[C@@H]3[C@H](O)C[C@@H]4C[C@H](O)CC[C@]4(C)[C@H]3C[C@H](O)[C@]12C (stereo in doubt) | Active | inactive | inactive | Active | Active | inactive | inactive | Non-Toxic | inactive | inactive |  |  | inactive | inactive |  | 
C[C@H](CCC(=O)Nc1ccc(C(=O)NN=C(c2ccccn2)c2ccccn2)cc1)[C@H]1CC[C@H]2[C@@H]3[C@H](O)C[C@@H]4C[C@H](O)CC[C@]4(C)[C@H]3C[C@H](O)[C@]12C | inactive | inactive | inactive | Active | Active | inactive | inactive | Non-Toxic | inactive | inactive |  |  |  |  |  | 
